Structures can show the parent of a compound that is named as a salt.
What was measured:
Assay type in all cases: in vivo
[1] = system: green peach aphid (Myzus persicae); assay: Test B: control of green peach aphid on radish plant, contact and/or systemic; details: 144 h, assessed after 6 days; for mortality at 50 ppm: sprayed at 50 ppm
From the text: For evaluating control of green peach aphid (Myzus persicae) through contact and/or systemic means, the test unit consisted of a small open container with a 12-15-day-old radish plant inside. This was pre-infested by placing on a leaf of the test plant 30-40 aphids on a piece of leaf excised from a culture plant (cut-leaf method). The aphids moved onto the test plant as the leaf piece desiccated. After pre-infestation, the soil of the test unit was covered with a layer of sand.
Test compounds were formulated and sprayed at 250, 50 and/or 10 ppm as described for Test A. The applications were replicated three times. After spraying of the formulated test compound, each test unit was allowed to dry for 1 h and then a black, screened cap was placed on top. The test units were held for 6 days in a growth chamber at 19-21° C. and 50-70% relative humidity. Each test unit was then visually assessed for insect mortality.

[2] = system: potato leafhopper (Empoasca fabae); assay: Test E: control of potato leafhopper on Soleil bean plant, contact and/or systemic; details: 144 h, assessed after 6 days, read-out: control efficacy: mortality; for mortality at 2 ppm: sprayed at 2 ppm; for mortality at 10 ppm: sprayed at 10 ppm; for mortality at 50 ppm: sprayed at 50 ppm
Procedure: For evaluating control of potato leafhopper (Empoasca fabae) through contact and/or systemic means, the test unit consisted of a small open container with a 5-6-day-old Soleil bean plant (primary leaves emerged) inside. White sand was added to the top of the soil and one of the primary leaves was excised prior to application.
Test compounds were formulated and sprayed at 250, 50, 10 and/or 2 ppm, and the tests were replicated three times as described for Test A. After spraying, the test units were allowed to dry for 1 h before they were post-infested with 5 potato leafhoppers (18-21-day-old adults). A black, screened cap was placed on the top of each test unit, and the test units were held for 6 days in a growth chamber at 24° C. and 70% relative humidity. Each test unit was then visually assessed for insect mortality.

[3] = system: cotton melon aphid (Aphis gossypii); assay: Test C: control of cotton melon aphid on cotton plant, contact and/or systemic; details: for mortality at 50 ppm: sprayed at 50 ppm
From the text: For evaluating control of cotton melon aphid (Aphis gossypii) through contact and/or systemic means, the test unit consisted of a small open container with a 6-7-day-old cotton plant inside. This was pre-infested with 30-40 insects on a piece of leaf according to the cut-leaf method described for Test B, and the soil of the test unit was covered with a layer of sand.
Test compounds were formulated and sprayed at 250 and/or 50 ppm as described for Test B. The applications were replicated three times. After spraying, the test units were maintained in a growth chamber and then visually rated as described for […].

[4] = system: corn planthopper (Peregrinus maidis); assay: Test D: control of corn planthopper on maize plant, contact and/or systemic; details: 144 h, assessed after 6 days, read-out: control efficacy: mortality; for mortality at 10 ppm: sprayed at 10 ppm; for mortality at 50 ppm: sprayed at 50 ppm; for mortality at 250 ppm: sprayed at 250 ppm; for mortality at 2 ppm: sprayed at 2 ppm
Procedure: For evaluating control of corn planthopper (Peregrinus maidis) through contact and/or systemic means, the test unit consisted of a small open container with a 3-4-day-old maize plant (spike) inside. White sand was added to the top of the soil prior to application. Test compounds were formulated and sprayed at 250, 50, 10 and/or 2 ppm, and replicated three times as described for Test A. After spraying, the test units were allowed to dry for 1 h before they were post-infested with ˜15-20 nymphs (18 to 21 day old) by sprinkling them onto the sand with a salt shaker. A black, screened cap was placed on the top of each test unit, and the test units were held for 6 days in a growth chamber at 22-24° C. and 50-70% relative humidity. Each test unit was then visually assessed for insect mortality.

[5] = system: rice green leafhopper (Nephotettix virescens); assay: Test G: control of rice green leafhopper on rice plant; details: 120 h, assessed after 5 days, read-out: control efficacy: mortality; for mortality at 10 ppm: sprayed at 10 ppm; for mortality at 50 ppm: sprayed at 50 ppm
Procedure: (§1) For evaluating control of rice green leafhopper (Nephotettix virescens) through contact and/or systemic means, the test unit consisted of a plastic pot containing a 13-cm-tall rice plant covered with steel wire mesh (50 mesh) supported by a wire frame. A small amount of sand was added to form a good seal between the bottom of the wire mesh, the soil surface and the top edge of the plastic pot.
(§2) Test compounds were formulated and sprayed at 50, 10 and/or 2 ppm, and the tests were replicated three times in a manner similar to the one described for Test A. After spraying, the test units were allowed to dry for 2 h before they were post-infested with 10 green leafhoppers (3rd instar nymphs, 7-9 days post-hatch). After 5 days, each test unit was visually assessed for insect mortality.

[6] = system: rice brown planthopper (Nilaparvata lugens); assay: Test H: control of rice brown planthopper on rice plant; details: 120 h, assessed after 5 days, read-out: control efficacy: mortality; for mortality at 2 ppm: sprayed at 2 ppm; for mortality at 10 ppm: sprayed at 10 ppm
Procedure: as §1, with “brown planthopper (Nilaparvata lugens)” for “green leafhopper (Nephotettix virescens)”
as §2, with “at 10, 2” for “at 50, 10”, “and/or 0.4” for “and/or 2”, “10 brown planthoppers” for “10 green leafhoppers”

O=c1c(-c2ccccc2)c([O-])[n+](Cc2cncnc2)c2ccccn12 [Compound 1, 2-hydroxy-4-oxo-3-phenyl-1-(5-pyrimidinylmethyl)-4H-pyrido[1,2-a]pyrimidinium inner salt]
≥ 80%: mortality at 50 ppm [1] | mortality at 250 ppm ([1]; sprayed at 250 ppm) | mortality at 2 ppm [2] | mortality at 10 ppm [2] | mortality at 50 ppm [2] | mortality at 250 ppm ([2]; sprayed at 250 ppm) | mortality at 250 ppm ([3]; sprayed at 250 ppm) | mortality at 10 ppm [4] | mortality at 50 ppm [4] | mortality at 250 ppm [4]

O=c1c(-c2ccc(F)cc2)c([O-])[n+](Cc2cncnc2)c2ccccn12 [Compound 2, 3-(4-fluorophenyl)-2-hydroxy-4-oxo-1-(5-pyrimidinylmethyl)-4H-pyrido[1,2-a]pyrimidinium inner salt]
≥ 80%: mortality at 10 ppm [2] | mortality at 50 ppm [2] | mortality at 10 ppm [5] | mortality at 50 ppm [5] | mortality at 2 ppm [6] | mortality at 10 ppm [6] | mortality at 2 ppm [4] | mortality at 10 ppm [4] | mortality at 50 ppm [4] | mortality at 250 ppm [4]

COc1ccccc1-c1c([O-])[n+](Cc2cncnc2)c2ccccn2c1=O [Compound 4, 2-hydroxy-3-(2-methoxyphenyl)-4-oxo-1-(5-pyrimidinylmethyl)-4H-pyrido[1,2-a]pyrimidinium inner salt]
≥ 80%: mortality at 50 ppm [2] | mortality at 50 ppm [4]

COc1cccc(-c2c([O-])[n+](Cc3cncnc3)c3ccccn3c2=O)c1 [Compound 5, 2-hydroxy-3-(3-methoxyphenyl)-4-oxo-1-(5-pyrimidinylmethyl)-4H-pyrido[1,2-a]pyrimidinium inner salt]
≥ 80%: mortality at 10 ppm [2] | mortality at 50 ppm [2] | mortality at 10 ppm [4] | mortality at 50 ppm [4]

O=c1c(-c2ccc(F)cc2F)c([O-])[n+](Cc2cncnc2)c2ccccn12 [Compound 6, 3-(2,4-difluorophenyl)-2-hydroxy-4-oxo-1-(5-pyrimidinylmethyl)-4H-pyrido[1,2-a]pyrimidinium inner salt]
≥ 80%: mortality at 10 ppm [2] | mortality at 50 ppm [2]

O=c1c(-c2cccc(OC(F)(F)F)c2)c([O-])[n+](Cc2cncnc2)c2ccccn12 [Compound 7, 2-hydroxy-4-oxo-1-(5-pyrimidinylmethyl)-3-[3-(trifluoromethoxy)phenyl]-4H-pyrido[1,2-a]pyrimidinium inner salt]
≥ 80%: mortality at 2 ppm [2] | mortality at 10 ppm [2] | mortality at 50 ppm [2] | mortality at 50 ppm [3] | mortality at 2 ppm ([5]; sprayed at 2 ppm) | mortality at 10 ppm [5] | mortality at 50 ppm [5] | mortality at 0.4 ppm ([6]; sprayed at 0.4 ppm) | mortality at 2 ppm [6] | mortality at 10 ppm [6]

O=c1c(-c2cccc(Br)c2)c([O-])[n+](Cc2cncnc2)c2ccccn12 [Compound 8]
≥ 80%: mortality at 50 ppm [2]

O=c1c(-c2ccccc2F)c([O-])[n+](Cc2cncnc2)c2ccccn12 [Compound 9, 3-(2-fluorophenyl)-2-hydroxy-4-oxo-1-(5-pyrimidinylmethyl)-4H-pyrido[1,2-a]pyrimidinium inner salt]
≥ 80%: mortality at 10 ppm [2] | mortality at 50 ppm [2] | mortality at 10 ppm [6] | mortality at 50 ppm [4]

O=c1c(-c2cc(C(F)(F)F)ccc2F)c([O-])[n+](Cc2cncnc2)c2ccccn12 [Compound 10, 3-[2-fluoro-5-(trifluoromethyl)phenyl]-2-hydroxy-4-oxo-1-(5-pyrimidinylmethyl)-4H-pyrido[1,2-a]pyrimidinium inner salt]
≥ 80%: mortality at 50 ppm [2] | mortality at 10 ppm [5] | mortality at 50 ppm [5] | mortality at 2 ppm [6] | mortality at 10 ppm [6] | mortality at 10 ppm [4] | mortality at 50 ppm [4] | mortality at 250 ppm [4]

Cc1cccc(-c2c([O-])[n+](Cc3cncnc3)c3ccccn3c2=O)c1 [Compound 11, 2-hydroxy-3-(3-methylphenyl)-4-oxo-1-(5-pyrimidinylmethyl)-4H-pyrido[1,2-a]pyrimidinium inner salt]
≥ 80%: mortality at 10 ppm [2] | mortality at 50 ppm [2] | mortality at 10 ppm [5] | mortality at 50 ppm [5] | mortality at 10 ppm [6] | mortality at 10 ppm [4] | mortality at 50 ppm [4]

O=c1c(-c2ccc(F)c(C(F)(F)F)c2)c([O-])[n+](Cc2cncnc2)c2ccccn12 [Compound 12, 3-[4-fluoro-3-(trifluoromethyl)phenyl]-2-hydroxy-4-oxo-1-(5-pyrimidinylmethyl)-4H-pyrido[1,2-a]pyrimidinium inner salt]
≥ 80%: mortality at 10 ppm [2] | mortality at 50 ppm [2] | mortality at 50 ppm [3] | mortality at 50 ppm [5] | mortality at 10 ppm [6] | mortality at 10 ppm [4] | mortality at 50 ppm [4]

O=c1c(-c2cc(Cl)cc(C(F)(F)F)c2)c([O-])[n+](Cc2cncnc2)c2ccccn12 [Compound 15, 3-[3-chloro-5-(trifluoromethyl)phenyl]-2-hydroxy-4-oxo-1-(5-pyrimidinylmethyl)-4H-pyrido[1,2-a]pyrimidinium inner salt]
≥ 80%: mortality at 10 ppm ([1]; sprayed at 10 ppm) | mortality at 50 ppm [1] | mortality at 2 ppm [2] | mortality at 10 ppm [2] | mortality at 50 ppm [2] | mortality at 10 ppm [6] | mortality at 2 ppm [4] | mortality at 10 ppm [4] | mortality at 50 ppm [4]

O=c1c(-c2cc(Cl)cc(Cl)c2)c([O-])[n+](Cc2cncnc2)c2ccccn12 [Compound 16, 3-(3,5-dichlorophenyl)-2-hydroxy-4-oxo-1-(5-pyrimidinylmethyl)-4H-pyrido[1,2-a]pyrimidinium inner salt]
≥ 80%: mortality at 50 ppm [1] | mortality at 10 ppm [4] | mortality at 50 ppm [4]

O=c1c(-c2cc(Cl)c(F)c(Cl)c2)c([O-])[n+](Cc2cncnc2)c2ccccn12 [Compound 17, 3-(3,5-dichloro-4-fluorophenyl)-2-hydroxy-4-oxo-1-(5-pyrimidinylmethyl)-4H-pyrido[1,2-a]pyrimidinium inner salt]
≥ 80%: mortality at 10 ppm [4] | mortality at 50 ppm [4]

Cc1cc(-c2ccc(C#N)cc2C)cc(-c2c([O-])[n+](Cc3cncnc3)c3ccccn3c2=O)c1 [Compound 18, 3-(4′-cyano-5,2′-dimethyl[1,1′-biphenyl]-3-yl)-2-hydroxy-4-oxo-1-(5-pyrimidinylmethyl)-4H-pyrido[1,2-a]pyrimidinium inner salt]
≥ 80%: mortality at 50 ppm [2] | mortality at 50 ppm [4]

O=c1c(-c2cccc(Cl)c2)c([O-])[n+](Cc2cncnc2)c2ccccn12 [Compound 19, 3-(3-chlorophenyl)-2-hydroxy-4-oxo-1-(5-pyrimidinylmethyl)-4H-pyrido[1,2-a]pyrimidinium inner salt]
≥ 80%: mortality at 50 ppm [1] | mortality at 10 ppm [2] | mortality at 50 ppm [2] | mortality at 10 ppm [4] | mortality at 50 ppm [4]
